Like-named read-outs stand apart in the source and are kept apart here.
Assays:
Escherichia coli No.14 = experiment: MIC and FIC, Nutrient agar, multiple inoculator (Test 4); assay type: cell-based; conditions: E. coli No.14, 10^8 cells/ml, 20 h
Experimental: (§1) After the incubation was carried out at 37° C. for 20 hours, MIC values were determined.

Proteus morganii 1433-2 = experiment: MIC and FIC, Nutrient agar (Tests 2, 3); assay type: cell-based; conditions: Morganella morganii, 14332; P. morganii 1433-2; 20 h
Experimental: as §1

Citrobacter freundii 63 = experiment: MIC and FIC, Nutrient agar (Test 9); assay type: cell-based; conditions: C. freundii 63, 18 h
Experimental: (§2) FIC values and FIC Index were calculated in substantially the same manner as described in Test 1.

Proteus vulgaris 22 = experiment: MIC and FIC, Nutrient agar (Test 9); assay type: cell-based; conditions: P. vulgaris 22, 18 h
Experimental: as §2

Enterobacter aerogenes 7 = experiment: MIC and FIC, Nutrient agar (Tests 6, 7, 9); assay type: cell-based; conditions: Klebsiella aerogenes; E. aerogenes 7; 18 h; read-out: MIC
Experimental: as §2

[1] = system: Alcaligenes faecalis 1311-1; experiment: MIC and FIC, Nutrient agar (Test 2); assay type: cell-based; conditions: 13111, A. faecalis 1311-1, 20 h
Experimental: as §1, §2

[2] = system: Shigella flexneri Ia EW-8; experiment: MIC and FIC, Nutrient agar (Test 2); assay type: cell-based; conditions: IAEW8, S. flexneri Ia EW-8, 20 h
Experimental: as §1

[3] = system: Staphylococcus epidermidis 1601-1; experiment: MIC and FIC, Nutrient agar (Tests 2, 3); assay type: cell-based; conditions: 16011, S. epidermidis 1601-1, 20 h
Experimental: as §1

Proteus mirabilis 5 = experiment: MIC and FIC, Nutrient agar (Test 7); assay type: cell-based; conditions: P. mirabilis 5, 18 h
Experimental: as §2

[4] = system: Proteus vulgaris IAM-1025; experiment: MIC and FIC, Nutrient agar (Test 2); assay type: cell-based; conditions: IAM1025, P. vulgaris IAM-1025, 20 h
Experimental: as §1, §2

[5] = system: Salmonella typhimurium 1406; experiment: MIC and FIC, Nutrient agar (Tests 2, 3); assay type: cell-based; conditions: Salmonella enterica, TYPHIMURIUM, 20 h
Proteus mirabilis 48 = experiment: MIC and FIC, Nutrient agar (Test 7); assay type: cell-based; conditions: P. mirabilis 48, 18 h
Experimental: as §2

[6] = system: Pseudomonas aeruginosa 1101-76; experiment: MIC and FIC, Nutrient agar (Test 3); assay type: cell-based; conditions: Pseudomonas aeruginosa, 110176, 20 h
Enterobacter cloacae 18 = experiment: MIC and FIC, Nutrient agar (Tests 7, 9); assay type: cell-based; conditions: E. cloacae 18, 18 h
Experimental: as §2

[7] = system: Salmonella enteritidis 1891; experiment: MIC and FIC, Nutrient agar (Test 2); assay type: cell-based; conditions: Salmonella enterica; S. enteritidis 1891; 20 h
Experimental: as §1

Escherichia coli 82 = experiment: MIC and FIC, Nutrient agar (Test 7); assay type: cell-based; conditions: E. coli 82, 18 h
Experimental: as §2

[8] = system: Pseudomonas aeruginosa No.15; experiment: MIC and FIC, Nutrient agar, multiple inoculator (Test 4); assay type: cell-based; conditions: P. aeruginosa No.15, 10^8 cells/ml, 20 h
Experimental: as §1, §2

[9] = system: Pseudomonas aeruginosa No.14; experiment: as above; assay type: cell-based; conditions: P. aeruginosa No.14, 10^8 cells/ml, 20 h
Experimental: as §1, §2

Serratia marcescens 9 = experiment: MIC and FIC, Nutrient agar (Test 6); assay type: cell-based; conditions: Serratia marcescens; S. marcescens 9; 18 h; read-out: MIC
Experimental: as §2

[10] = system: Pseudomonas aeruginosa No.5; experiment: MIC and FIC, Nutrient agar, multiple inoculator (Tests 4, 5); assay type: cell-based; conditions: Pseudomonas aeruginosa; P. aeruginosa No.5; 10^8 cells/ml, 20 h; read-out: MIC
Experimental: as §1

[11] = system: Pseudomonas aeruginosa No.11; experiment: MIC and FIC, Nutrient agar, multiple inoculator (Test 5); assay type: cell-based; conditions: Pseudomonas aeruginosa; P. aeruginosa No.11; 10^8 cells/ml, 20 h; read-out: MIC
Experimental: as §1, §2

[12] = system: Pseudomonas aeruginosa No.18; experiment: as above; assay type: cell-based; conditions: Pseudomonas aeruginosa; P. aeruginosa No.18; 10^8 cells/ml, 20 h; read-out: MIC
Experimental: as §1, §2

Escherichia coli 99 = experiment: MIC and FIC, Nutrient agar (Test 6); conditions: Escherichia coli, 99, 18 h
Experimental: as §2

Serratia marcescens 27 = experiment: MIC and FIC, Nutrient agar (Test 7); assay type: cell-based; conditions: S. marcescens 27, 18 h
Experimental: as §2

[13] = system: Pseudomonas aeruginosa No.9; experiment: MIC and FIC, Nutrient agar, multiple inoculator (Test 4); assay type: cell-based; conditions: P. aeruginosa No.9, 10^8 cells/ml, 20 h
Experimental: as §1, §2

Serratia marcescens 4 = experiment: MIC and FIC, Nutrient agar (Test 9); assay type: cell-based; conditions: S. marcescens 4, 18 h
Experimental: as §2

[14] = system: Pseudomonas aeruginosa 77; experiment: MIC and FIC, Nutrient agar (Test 7); assay type: cell-based; conditions: P. aeruginosa 77, 18 h
Experimental: as §2

[15] = system: Pseudomonas aeruginosa No.13; experiment: MIC and FIC, Nutrient agar, multiple inoculator (Test 5); assay type: cell-based; conditions: Pseudomonas aeruginosa; P. aeruginosa No.13; 10^8 cells/ml, 20 h; read-out: MIC
Experimental: as §1, §2

[16] = system: Pseudomonas aeruginosa No.12; experiment: as above; assay type: cell-based; conditions: Pseudomonas aeruginosa; P. aeruginosa No.12; 10^8 cells/ml, 20 h; read-out: MIC
Experimental: as §1, §2

Staphylococcus aureus 2 = experiment: MIC and FIC, Nutrient agar (Test 7); assay type: cell-based; conditions: S. aureus 2, 18 h
Experimental: as §2

Proteus vulgaris 7 = experiment: MIC and FIC, Nutrient agar (Tests 7, 9); assay type: cell-based; conditions: P. vulgaris 7
[17] = system: Proteus mirabilis 1432-75; experiment: MIC and FIC, Nutrient agar (Tests 2, 3); assay type: cell-based; conditions: Proteus mirabilis, 143275, 20 h
[18] = system: Salmonella paratyphi A-1015; experiment: MIC and FIC, Nutrient agar (Test 2); assay type: cell-based; conditions: Salmonella enterica; S. paratyphi A-1015; 20 h
Experimental: as §1, §2

[19] = system: Escherichia coli 1341-18R^+; experiment: MIC and FIC, Nutrient agar (Test 3); assay type: cell-based; conditions: 20 h
[20] = system: Pseudomonas aeruginosa No.7; experiment: MIC and FIC, Nutrient agar, multiple inoculator (Test 4); assay type: cell-based; conditions: P. aeruginosa No.7, 10^8 cells/ml, 20 h
Experimental: as §1, §2

Klebsiella pneumoniae 8 = experiment: Isobologram, growth in Nutrient broth in various combination ratios (Test 8); assay type: cell-based; set-up: key: +: the test microorganism grew; -: the test microorganism did not grow; conditions: gentamicin sulfate 0
Experimental: After the incubation was carried out at 37° C. for 18 hours, the growth of the test organism was observed.

Proteus rettgeri 1434-3 = experiment: MIC and FIC, Nutrient agar (Test 3); assay type: cell-based; conditions: Providencia rettgeri, 14343; P. rettgeri 1434-3; 20 h
Experimental: as §1, §2

Compound: O=CN(O)CCCP(=O)(O)O [A (Table 2)]
- MIC (Escherichia coli No.14): 25 µg/mL
- MIC (Proteus morganii 1433-2): ≥ 400 µg/mL
- MIC (Citrobacter freundii 63): 50 µg/mL
- MIC (Proteus vulgaris 22): 6.25 µg/mL
- MIC (Enterobacter aerogenes 7): 100 µg/mL
- MIC [1]: ≥ 400 µg/mL
- MIC [2]: 1.56 µg/mL
- MIC [3]: ≥ 400 µg/mL
- MIC (Proteus mirabilis 5): 25 µg/mL
- MIC [4]: 1.56 µg/mL
- MIC [5]: 6.25 µg/mL
- MIC (Proteus mirabilis 48): 25 µg/mL
- MIC [6]: 1.56 µg/mL
- MIC (Enterobacter cloacae 18; listed as A (Table 14)): 100 µg/mL
- MIC (Enterobacter cloacae 18; Enterobacter cloacae, read-out: MIC): 200 µg/mL
- MIC [7]: 0.78 µg/mL
- MIC (Escherichia coli 82): 100 µg/mL
- MIC [8]: > 800 µg/mL
- MIC [9]: 400 µg/mL
- MIC (Serratia marcescens 9): 200 µg/mL
- MIC [10]: 800 µg/mL
- MIC [11]: > 800 µg/mL
- MIC [12]: > 800 µg/mL
- MIC (Escherichia coli 99): 25 µg/mL
- MIC (Serratia marcescens 27): 400 µg/mL
- MIC [13]: > 800 µg/mL
- MIC (Serratia marcescens 4): 50 µg/mL
- MIC [14]: 6.25 µg/mL
- MIC [15]: 800 µg/mL
- MIC [16]: 800 µg/mL
- MIC (Staphylococcus aureus 2): 200 µg/mL
- MIC (Proteus vulgaris 7; 18 h, listed as A (Table 15)): 50 µg/mL
- MIC (Proteus vulgaris 7; Proteus vulgaris, 7, 18 h): 25 µg/mL
- MIC [17]: 1.56 µg/mL
- MIC [18]: 6.25 µg/mL
- MIC [19]: 6.25 µg/mL
- MIC [20]: 200 µg/mL
- growth of the test organism (Klebsiella pneumoniae 8; phosphonic acid salt 0.78 mcg/ml): +
- growth of the test organism (Klebsiella pneumoniae 8; phosphonic acid salt 1.56 mcg/ml): +
- growth of the test organism (Klebsiella pneumoniae 8; phosphonic acid salt 3.13 mcg/ml): +
- growth of the test organism (Klebsiella pneumoniae 8; phosphonic acid salt 6.25 mcg/ml): +
- growth of the test organism (Klebsiella pneumoniae 8; phosphonic acid salt 12.5 mcg/ml): +
- growth of the test organism (Klebsiella pneumoniae 8; phosphonic acid salt 25 mcg/ml): -
- MIC (Proteus rettgeri 1434-3): 1.56 µg/mL
